Results published in ChEMBL document CHEMBL2390945, “Synthesis and characterization of 123I-CMICE-013: a potential SPECT myocardial perfusion imaging agent” (Bioorg Med Chem, 2013).

Key:
Liver [1] = experiment: Biodistribution in rat liver at 15 uci, iv measured at 60 mins; assay type: ADME, organism-based; conditions: in vivo, 1 h
Liver [2] = experiment: Biodistribution in rat liver at 15 uci, iv measured at 15 mins; assay type: ADME, organism-based; conditions: in vivo, 0.25 h
Heart [3] = experiment: Biodistribution in Sprague-Dawley rat heart at 2 hrs by gamma counting analysis; assay type: ADME, organism-based; conditions: in vivo
Blood [4] = experiment: Biodistribution in Sprague-Dawley rat blood at 2 hrs by gamma counting analysis; assay type: ADME, organism-based; conditions: in vivo
Muscle tissue = experiment: Biodistribution in Sprague-Dawley rat muscle at 24 hrs by gamma counting analysis; assay type: ADME, organism-based; conditions: in vivo
Liver [5] = experiment: Biodistribution in Sprague-Dawley rat liver at 24 hrs by gamma counting analysis; assay type: ADME, organism-based; conditions: in vivo
Thyroid gland [6] = experiment: Biodistribution in Sprague-Dawley rat thyroid assessed per organ at 24 hrs by gamma counting analysis; assay type: ADME, organism-based; conditions: in vivo
[7] = Ratio of drug level in heart to blood in Sprague-Dawley rat measured at 2 hrs; assay type: ADME
Thyroid gland [8] = experiment: Biodistribution in Sprague-Dawley rat thyroid assessed per organ at 2 hrs by gamma counting analysis; assay type: ADME, organism-based; conditions: in vivo
Liver [9] = experiment: Biodistribution in Sprague-Dawley rat liver at 2 hrs by gamma counting analysis; assay type: ADME, organism-based; conditions: in vivo
Kidney = experiment: Biodistribution in Sprague-Dawley rat kidney at 24 hrs by gamma counting analysis; assay type: ADME, organism-based; conditions: in vivo
Spleen = experiment: Biodistribution in Sprague-Dawley rat spleen at 24 hrs by gamma counting analysis; assay type: ADME, organism-based; conditions: in vivo
[10] = Ratio of drug level in heart to liver in Sprague-Dawley rat measured at 2 hrs; conditions: in vivo
Brain [11] = experiment: Biodistribution in Sprague-Dawley rat brain at 24 hrs by gamma counting analysis; assay type: ADME, organism-based; conditions: in vivo
Heart [12] = experiment: Biodistribution in Sprague-Dawley rat heart at 24 hrs by gamma counting analysis; assay type: ADME, organism-based; conditions: in vivo
Lung [13] = experiment: Biodistribution in Sprague-Dawley rat lung at 24 hrs by gamma counting analysis; assay type: ADME, organism-based; conditions: in vivo
Blood [14] = experiment: Biodistribution in Sprague-Dawley rat blood at 24 hrs by gamma counting analysis; assay type: ADME, organism-based; conditions: in vivo
[15] = Ratio of drug level in heart to lung in Sprague-Dawley rat measured at 2 hrs; conditions: in vivo
Brain [16] = experiment: Biodistribution in Sprague-Dawley rat brain at 2 hrs by gamma counting analysis; assay type: ADME, organism-based; conditions: in vivo
Lung [17] = experiment: Biodistribution in Sprague-Dawley rat lung at 2 hrs by gamma counting analysis; assay type: ADME, organism-based; conditions: in vivo

Row | Drug uptake (Liver [1]) | Drug uptake (Liver [2]) | Drug uptake (Heart [3]) | Drug uptake (Blood [4]) | Drug uptake (Muscle tissue) | Drug uptake (Liver [5]) | Drug uptake (Thyroid gland [6]) | Kp at 2 h [7] | Drug uptake (Thyroid gland [8]) | Drug uptake (Liver [9]) | Drug uptake (Kidney) | Drug uptake (Spleen) | Ratio [10] | Drug uptake (Brain [11]) | Drug uptake (Heart [12]) | Drug uptake (Lung [13]) | Drug uptake (Blood [14]) | Ratio [15] | Drug uptake (Brain [16]) | Drug uptake (Lung [17]) | Compound
1 | 0.9 % ID/g | 1.4 % ID/g |  |  |  |  |  |  |  |  |  |  |  |  |  |  |  |  |  |  | CC(C)(C)n1ncc(OCc2ccc(COCCF)cc2)c(Cl)c1=O [FLURPIRIDAZ]
2 |  |  | 2.96 %Idose/kg | 0.14 %Idose/kg | Active | Active | 3.78 %ID | 22.4 | 0.34 %ID | 1.17 %Idose/kg | Active | Active | 2.57 | Active | Active | Active | 0.06 % ID/g | 9.32 | 0.34 %Idose/kg | 0.33 %Idose/kg | COc1cc2c(cc1OC)[C@@H]1C(=O)c3ccc4c(c3O[C@@H]1CO2)C[C@H](/C(C)=C\[125I])O4
